Read-outs that look alike come from different tables or passages of the source.
Experiments:
[1] = Acute oral exposure of ovariectomized mice: uterine weight; format: in vivo, mouse; conditions: 4 days, BP3 3000, PP 10000 μg/kg/d
Description: Animal Treatment: Forty mature female mice (8 weeks old) BALB/c mice were purchased from Jackson Laboratory and housed in temperature-controlled facilities with a 12-hour alternating day/night light cycle and fed LabChow 5058 ad libitum. All procedures were in accordance with the national guidelines for the care and use of animals and approved by the University of Massachusetts Amherst's Institutional Animal Care and Use Committee.
The mice were ovariectomized before treatment. Briefly, each mouse was anaesthetized with a mix of isofluorance and oxygen. The flanks were shaved, sterilized with betadine and cleaned with alcohol. An incision was made to the skin on the right flank. The underlying muscle layer was nicked to reveal a small hole through which ovary was pulled out by grasping the periovarian fat. A Serrifin clamp was used to hold the ovary. After making sure the blood vessels were constricted to prevent […], the ovary was cut from the uterine horn. The periovarian fat was restored into the peritoneum. The peritoneum was closed with one or two stiches and the skin was closed with 9 mm wound clips. The procedure was repeated on the contralateral side. The mouse was monitored for a week post-procedure and wound clips were removed after 10 days. […]

[2] = test system: T47D cells; assay: S9.6 immunostaining (R-loops) in T47D cells; format: cell-based, human; conditions: 5 μM, vs vehicle-treated control
Procedure: Immunostaining: Cells were grown in clearing media for 48 h and plated on 20 mm coverslip in 12 well plates with a density of 2×10^5 cells/well. After 24 h of growth, cells were treated with 10 nM E2, 1 or 5 μM BP3, and 1 or 5 μM PP with or without 1 μM fulvestrant. γH2AX/ERα: Cells were fixed in ice-cold methanol (100%) for 10 mins and quenched with 0.1 M Glycine for 15 mins. Cells were washed with 1×PBS, blocked in 2% BSA/PBS with 0.1% Triton-X 100 for 1 hr at room temperature (RT), incubated overnight with γH2AX antibody (Cell Signaling #9718 S) or ERα antibody (Santa Cruz Biotechnology #sc-8002) at 4° C. and 1 hour with secondary antibody. S9.6: Cells were fixed in ice-cold 100% methanol for 10 min at −20° C., permeabilized in 100% acetone for 1 min at RT, blocked for 30 min in saline sodium citrate pH 7 (SSC, 4×), 3% BSA, 0.1% Triton-X and incubated with S9.6 (Kerafast #ENH001) 2 hr at RT followed by 1 h with secondary antibody. If indicated, slides were treated with RNase H (NEB #M0297L) for 4 hr at 37° C. prior to incubation with primary antibody. Stained cells were mounted with Vectashield mounting medium containing DAPI (Vector Laboratories #H-1200). […] Analysis of γH2AX and S9.6 intensity per nucleus or foci per nucleus was calculated using Nikon analysis software, where DAPI was used as a mask for the nucleus.

[3] = development and reproductive toxicity assays; cited from earlier work
[4] = target: T1, ER (Homo sapiens, UniProt P03372); set-up: host or cells: MCF-7; conditions: MCF-7, 1 μM; cited from earlier work
T1 sequence (P03372 1-595): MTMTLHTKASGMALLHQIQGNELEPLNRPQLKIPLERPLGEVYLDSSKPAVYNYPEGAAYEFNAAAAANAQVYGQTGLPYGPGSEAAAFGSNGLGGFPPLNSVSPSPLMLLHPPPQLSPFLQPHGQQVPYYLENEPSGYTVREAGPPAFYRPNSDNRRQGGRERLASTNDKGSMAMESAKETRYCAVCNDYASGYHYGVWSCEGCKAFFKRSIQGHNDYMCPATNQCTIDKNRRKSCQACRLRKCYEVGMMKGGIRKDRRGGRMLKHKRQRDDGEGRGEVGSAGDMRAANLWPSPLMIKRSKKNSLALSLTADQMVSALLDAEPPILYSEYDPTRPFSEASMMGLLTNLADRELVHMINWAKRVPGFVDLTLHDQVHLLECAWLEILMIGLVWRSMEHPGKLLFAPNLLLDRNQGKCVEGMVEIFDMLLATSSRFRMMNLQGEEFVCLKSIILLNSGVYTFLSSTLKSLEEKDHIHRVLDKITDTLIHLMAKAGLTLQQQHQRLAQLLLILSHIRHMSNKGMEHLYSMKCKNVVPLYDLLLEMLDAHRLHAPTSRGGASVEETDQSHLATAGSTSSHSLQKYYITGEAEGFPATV

[5] = target: T2, estrogen receptor (Homo sapiens, UniProt P03372); assay: Luciferase reporter assay (ERE-luciferase transactivation) in T47D-KBluc cells; format: cell-based; conditions: for LOEC (lowest-observed-effect-concentration) for transcription in luciferase assay: T47D-KBluc, 24 h treatment
T2 sequence (P03372 1-595): T1 sequence (P03372 1-595)

[6] = test system: 76N-Tert-ESR1 cell line; assay: S9.6 immunostaining (R-loops) in 76N-Tert-ESR1 cells induced with doxycycline; conditions: 76N-Tert-ESR1 after induction of ERα with doxycycline, 5 μM
[7] = test system: normal human keratin cell lines; conditions: cited from earlier work
[8] = also printed as 200 μg/L; cited from earlier work
[9] = test system: AREG and PGR; assay: RT-qPCR of endogenous ER target genes AREG and PGR in T47D and MCF-7 cell lines; format: cell-based, human; conditions: for induction of endogenous ER target genes AREG and PGR: 1 μM, T47D and MCF-7; for transcription by endogenous gene expression: 5 μM BP3, 1 μM PP
[10] = test system: 76N-Tert-ESR1 cell line; conditions: human, 5 µM
[11] = target: T1, ER; conditions: 10 μM; cited from earlier work

Row | SMILES | uterine weights compared to the control treatment [1] | nuclear S9.6 foci (R-loops) [2] | no-adverse-effect-level (NOAEL) dose [3] [µg/kg/day] | ER agonism in transactivation and proliferation assays [4] | LOEC (lowest-observed-effect-concentration) for transcription in luciferase assay [5] [µM] | Relative Transactivation Activity at 90%ile or 95%ile (% RTA vs E2) ([5]; at 95%ile urine concentration of non-pregnant women) [%] | Relative Transactivation Activity at 90%ile or 95%ile (% RTA vs E2) ([5]; at 95%ile urine concentration of pregnant women) [%] | maximum relative transactivation activity (RTA) compared to 10 nM E2 ([5]; maximum) [%] | nuclear S9.6 foci [6] | concentration inducing γH2AX foci [7] [µM] | serum level following exposure in women [8] | concentration at which transcriptional response is observed [9] | induction of endogenous ER target genes AREG and PGR [9] | transcription by endogenous gene expression [9] | nuclear S9.6 foci [10] | induction of gene expression (ERE-CAT reporter) [11] [fold]
1 | COc1ccc(C(=O)c2ccccc2)c(O)c1 [BP3, 2-Hydroxy-4-methoxybenzophenone] | not sufficient | significantly higher | 3000 | weak agonist | 5 | 18.91 ± 6.62 | 27.16±6.2 | 37 | increased number of nuclear S9.6 foci significantly over vehicle-treated control | 10 | approximately 0.87 μM | greater than 5 μM | poor agonists | no significant increase in transcription | – | –
2 | CCCOC(=O)c1ccc(O)cc1 [PP, propyl parahydroxybenzoate] | not sufficient | significantly higher | 10000 | – | 0.5 | – | – | – | – | – | – | greater than 5 μM | poor agonists | no significant increase in transcription | increased number of nuclear S9.6 foci significantly over vehicle-treated control | 1.3

Source: US12590950B2, “Methods for predicting ER-mediated DNA damage” (UNIVERSITY OF MASSACHUSETTS, priority 2019, dated 2026)
